Laboratory results reported in patent publication US20230118642A1, “METHOD FOR TREATING THERAPY-RESISTANT MUC4+ CANCER” (CONSEJO NACIONAL DE INVESTIGACIONES CIENTÍFICAS Y TÉCNICAS, priority 2020, published 2023).

Experiments:
[1] = tested on: HCC70 triple-negative breast cancer cell line; assay: HCC70 cell viability, CellTiter Glo 2.0; format: cell-based; conditions: 72 h
Procedure: (§1) FIG. 25(A-C) INB03 enhances sorafenib inhibition in cell proliferation of colon, gastric and triple-negative breast cancer cells. Cell proliferation was evaluated in the HT-29 colon cancer (FIG. 25A), SNU-1 gastric cancer (FIG. 25B) and in the in the HCC-70 triple-negative breast cancer cell lines (FIG. 25C). Cells were treated with vehicle (DMSO 0.1%), sorafenib (Soraf), or INB03 (10 μg/ml), alone or in different combinations for 72 h. (FIGS. 25A and B) HT-29 and SNU-1 cell proliferation was evaluated by cell count Countess automatic cell count. (FIG. 25C) HCC70 cell viability was analyzed by CellTiter Glo 2.0 assay.
FIG. 26 INB03 enhances cediranib inhibition in cell viability of HCC70 triple-negative breast cancer cells. Cell viability was evaluated in the HCC70 cell line. Cells were treated with vehicle (DMSO 0.1%), cediranib (cedir), or INB03 (10 μg/ml), alone or in different combinations for 72 h. Cell viability was analyzed by CellTiter Glo 2.0 assay.

[2] = tested on: MDA-MB-468 cell line; assay: MDA-MB-468 cell viability, CellTiter Glo 2.0; format: cell-based; conditions: Homo sapiens, 72 h, read-out: decrease of MDA-MB-468 cell viability
Procedure: FIG. 24 INB03 enhances erlotinib inhibition in cell viability of MDA-MB 468 triple-negative breast cancer cells. Cell viability was evaluated in the MDA-MB-468 cell line. Cells were treated with vehicle (DMSO 0.1%), erlotinib (erlot), or INB03 (10 μg/ml), alone or in different combinations for 72 h.

[3] = stated without test; cited from earlier work
[4] = tested on: SK-OV-3 ovarian cancer cell line; assay: SK-OV-3 cell viability, CellTiter Glo 2.0; format: cell-based; conditions: lapatinib 2.5 μM alone, 72 h
Procedure: Cells were treated with vehicle (DMSO 0.1%), lapatinib (Lap), or NB03 (10 μg/ml), alone or in different combinations for 72 h. (FIG. 22A) SK-OV-3 cells viability was analyzed by CellTiter Glo 2.0 assay. […] Data was analyzed by one-way ANOVA coupled with a Tukey's post hoc test. The data as shown represents mean SEM. *p<0.05, **p<0.01.

[5] = tested on: JIMT-1-shMUC4 cells; assay: JIMT-1-shMUC4 migration with lapatinib and TNF-blocking agents; format: cell-based
Procedure: (§2) Again, lapatinib is used in the metastatic setting (infra). The metastatic cascade is a multistep process that involves migration and invasion of tumor cells that pass through the basement membrane and extracellular matrix, the intravasation to the lymphatic or vascular circulation, the extravasation and the attachment of a new location to generate a secondary tumor. The migration ability of JIMT-1 treated with lapatinib and TNF-blocking agents was evaluated. […] To study MUC4 contribution on the inhibition of migration observed by simultaneous treatment of TNF-blocking drugs and lapatinib, the JIMT-1 cell line was transduced with a plasmid encoding a doxycycline-inducible shRNA targeting MUC4, and JIMT-1-shMUC4 cells were obtained (FIGS. 16 B and C).

[6] = tested on: SNU-1 gastric cancer cell line; assay: SNU-1 cell proliferation, Countess automatic cell count; format: cell-based; conditions: 72 h
Procedure: In order to extend our findings of the role of INB03 in increasing lapatinib inhibitory effect on HER2+ breast cancer cell proliferation to other tumor types, we used both drugs in the ovarian cancer SK-OV-3 cells and in the gastric SNU-1 cells. Both cell lines express HER2 and MUC4.
FIG. 22(A-B) INB03 enhances lapatinib inhibition in cell proliferation of ovarian and gastric cancer cell. Cell proliferation was evaluated in the SK-OV-3 ovarian cancer cell line (FIG. 22A) and in the SNU-1 gastric cancer cell line. Cells were treated with vehicle (DMSO 0.1%), lapatinib (Lap), or NB03 (10 μg/ml), alone or in different combinations for 72 h. (FIG. 22A) SK-OV-3 cells viability was analyzed by CellTiter Glo 2.0 assay. (FIG. 22B) SNU-1 cell proliferation was evaluated by cell count Countess automatic cell count.
as §1

[7] = tested on: JIMT-1; assay: JIMT-1 migration with lapatinib and TNF-blocking agents; format: cell-based
Procedure: as §2

[8] = tested on: HER2+ breast cancer; conditions: patients with trastuzumab-resistant disease; cited from earlier work
[9] = tested on: JIMT-1-shMUC4 cells; assay: JIMT-1-shMUC4 cell proliferation with lapatinib and TNFα blockade, cell count at 72 h; format: cell-based
Procedure: (§3) Then, to study the participation of MUC4 in lapatinib resistance, we transduced the trastuzumab-resistant JIMT-1 cell line with a plasmid encoding a doxycycline (Dox)-inducible shRNA targeting MUC4, and obtained JIMT-1-shMUC4 cells.
(§4) FIG. 18 TNFα blockade sensitizes lapatinib-resistant cells in vitro. Cell proliferation was evaluated in JIMT-1 and JIMT-1-shMUC4 cell lines by cell count at 72 h of treatment. Cells were treated with immunoglobulin G (IgG 5 μg/ml), lapatinib (Lap 1 μM), etanercept (E 5 μg/ml), or INB03 (DN; 10 μg/ml), alone or in different combinations. FIG. 18A. JIMT-1 wild type. FIGS. 18B and 18C JIMT-1-shMUC4 and in C cells were treated with Dox 10 μg/ml for 10 days before and during the experiment to assure MUC4 downregulation.

[10] = tested on: HT-29 colon cancer cells; assay: HT-29 cell proliferation, Countess automatic cell count; format: cell-based; conditions: 72 h
Procedure: as §1

[11] = tested on: JIMT-1 cell line; assay: JIMT-1 cell proliferation with lapatinib and TNFα blockade, cell count at 72 h; format: cell-based; conditions: TNFα blocker simultaneously with lapatinib 1 μM, E 5 μg/ml, INB03 10 μg/ml
Procedure: as §3, §4

[12] = tested on: JIMT-1 cell line; assay: JIMT-1 cell proliferation, [3H]-thymidine incorporation; format: cell-based; conditions: 48 h treatment, 18 h pulse; T 10 μg/ml, P 10 μg/ml, E 5 μg/ml, DN 2 μg/ml; vs IgG
Procedure: A strategy of implementing a TNFα blockade was employed, either with Etanercept (E) or the dominant negative protein XPRO1595 (DN) in JIMT-1, de novo T and T+P resistant cell line which produces TNFα. JIMT-1 tumors were established in female nude mice to explore whether TNFα blockade overcomes T+P resistance. Animals were treated with 5 mg/kg of IgG, P, T+P, 10 mg/kg of DN or P+T+DN i.p. twice a week. […] Proliferation of cells treated with IgG, T, P, DN, E (10 μg/ml, 10 μg/ml, 10 μg/ml, 2 μg/ml and 5 μg/ml respectively) as monotherapy and in different combinations was evaluated by cell count or [3H]-thymidine incorporation. The combination of TNFα blockade with T+P inhibited cell proliferation vs. IgG, P+T, P+E, P+DN (p<0.0001).
Cell proliferation in JIMT-1 cell line was evaluated by ^3[H]-thymidine incorporation assay at 48 h of treatment with 18 h pulse (See Rivas M A, et al., Exp Cell Res 2008; 314:509-29, the contents of which are hereby incorporated by reference). […] The data as shown in FIG. 3 represents mean±standard deviation *p<0.05, **p<0.01, ***p<0.001 vs. IgG.

## COc1cc2c(Oc3ccc4[nH]c(C)cc4c3F)ncnc2cc1OCCCN1CCCC1 [cediranib]
[1]; Homo sapiens, HCC70, cediranib 2.5 μM alone, read-out: effect on HCC70 cell viability
  cytotoxicity at 2.5 µM: 20%
[1]; Homo sapiens, HCC70, cediranib 5 μM alone, read-out: effect on HCC70 cell viability
  cytotoxicity at 5 µM: 46%

## C#Cc1cccc(Nc2ncnc3cc(OCCOC)c(OCCOC)cc23)c1 [erlotinib]
[2]; erlotinib 1.25 μM alone
  cytotoxicity at 1.25 µM: 27%
[2]; erlotinib 2.5 μM alone
  cytotoxicity at 2.5 µM: 38%
[2]; erlotinib 5 μM alone
  cytotoxicity at 5 µM: 48%

## CS(=O)(=O)CCNCc1ccc(-c2ccc3ncnc(Nc4ccc(OCc5cccc(F)c5)c(Cl)c4)c3c2)o1 [lapatinib]
[3]
  crossing of the blood-brain-barrier: cross the blood-brain-barrier
[4]
  effect on viability of SK-OV-3 cells: no effect
[5]; JIMT-1-shMUC4 with doxycycline (MUC4 silenced), lapatinib
  cell migration: decrease in JIMT-1 cells migration
[6]; lapatinib 1 μM alone
  effect on proliferation of SNU-1 cells: no effect
[7]; each drug alone
  JIMT-1 migration: no effect
[8]
  patients with clinical benefit: < 30%
[9]; JIMT-1-shMUC4 with Dox 10 μg/ml (MUC4 silenced), lapatinib
  cell proliferation: decrease in JIMT-1 cells proliferation

## CNC(=O)c1cc(Oc2ccc(NC(=O)Nc3ccc(Cl)c(C(F)(F)F)c3)cc2)ccn1 [sorafenib]
[6]; sorafenib 1.5 μM alone
  effect on SNU-1 proliferation: did not affect its proliferation
[6]; sorafenib 3 μM alone
  decrease of SNU-1 cell proliferation: 38%
[10]; sorafenib 2.5 μM alone
  effect on HT-29 cell proliferation: no inhibitory effect
[10]; sorafenib 10 μM alone
  reduction of HT-29 proliferation: 62%
[1]; Homo sapiens, HCC70, sorafenib 1.5 μM alone, read-out: HCC70 viability reduction
  cytotoxicity at 1.5 µM: 44%
[1]; sorafenib 1 μM alone
  effect on HCC70 viability: no effect

## etanercept
[5]; JIMT-1-shMUC4 with doxycycline, TNF blocker added to lapatinib
  cell migration: did not further induce a decrease in cell migration
[5]; JIMT-1shMUC4 without doxycycline, TNF blocker with lapatinib
  cell migration: decreased their migration
[7]; TNF blocker together with lapatinib
  JIMT-1 migration: impairs JIMT-1 migration
[7]; each drug alone
  JIMT-1 migration: no effect
[9]; JIMT-1-shMUC4 with Dox, TNFα blocker added to lapatinib
  cell proliferation: did not further induce a decrease in cell proliferation
[11]
  JIMT-1 cell proliferation: reduces JIMT-1 cell proliferation

## pertuzumab: monoclonal antibody that disrupts HER2/HER3 dimerization
[12]
  cell proliferation in JIMT-1 cell line: negligible, if any, impact
